One data set deals with T1, Serotonin reuptake (Rattus norvegicus, UniProt P31652).
T1 construct: from tissue
Description: Serotonin re-uptake inhibition, synaptosomal, [3H]5-HT as tracer. The format is biochemical. The following applies: [3H]5-HT tracer, imipramine as reference, read-out: IC50 (nmol/L), Serotonin reuptake. On the procedure: Serotonin re-uptake inhibition was determined by means of synaptosomal re-uptake inhibition as described by Perovic & Muller et al. (Arzneim-Forsch. Drug. Res. 1995, 45:1145-1148) with [^3H]5-HT as tracer and imipramine as reference.

For a further data set, the target named is T2, Norepinephrine uptake (Rattus norvegicus, UniProt Q63380).
T2 construct: from tissue
T2 sequence (Q63380 1-617): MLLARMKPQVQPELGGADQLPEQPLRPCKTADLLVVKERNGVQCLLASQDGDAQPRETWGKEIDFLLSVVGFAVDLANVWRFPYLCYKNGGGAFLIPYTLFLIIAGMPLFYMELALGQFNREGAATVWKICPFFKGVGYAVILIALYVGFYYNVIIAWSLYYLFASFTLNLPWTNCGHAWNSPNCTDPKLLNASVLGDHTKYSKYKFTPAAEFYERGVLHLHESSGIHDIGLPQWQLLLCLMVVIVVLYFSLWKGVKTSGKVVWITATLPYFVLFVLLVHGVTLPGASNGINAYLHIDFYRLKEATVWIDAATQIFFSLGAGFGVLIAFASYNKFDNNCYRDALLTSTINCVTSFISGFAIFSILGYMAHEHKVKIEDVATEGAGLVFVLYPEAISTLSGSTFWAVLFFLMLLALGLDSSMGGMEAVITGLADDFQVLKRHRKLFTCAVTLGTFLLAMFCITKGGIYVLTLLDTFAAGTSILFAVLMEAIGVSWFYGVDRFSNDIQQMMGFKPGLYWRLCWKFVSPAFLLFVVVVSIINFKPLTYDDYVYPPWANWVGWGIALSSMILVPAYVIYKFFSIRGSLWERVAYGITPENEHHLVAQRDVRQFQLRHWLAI
Briefly: Norepinephrine uptake, [3H]NE as tracer. The format is biochemical. The following applies: [3H]NE tracer, protriptyline as reference; read-out: IC50 (nmol/L), Norepinephrine. The protocol: Norepinephrine uptake was determined as described in the Perovic & Muller work with [^3H]NE as tracer and protriptyline as reference.

A further data set addresses T3, Dopamine uptake (Rattus norvegicus, UniProt P23977).
T3 construct: A crude synaptosomal membrane preparation from various regions of rat brain was prepared; from tissue; host or cells: crude synaptosomal preparation from rat brain (Sprague-Dawley)
Briefly: [3H]Dopamine uptake inhibition in crude synaptosomal preparation. The format is biochemical. As to conditions: rat brain synaptosomal preparation, [3H]DA tracer, GBR12909 as reference; read-out: IC50 (nmol/L), Dopamine. The protocol:
Dopamine uptake inhibition was determined as described by Janowsky et al. (Neurochem. 1986, 46:1272-1276) with [^3H]DA as tracer and GBR12909 as reference.
[^3H]Dopamine uptake inhibition is as provided below:
Tissue preparation—A crude synaptosomal membrane preparation from various regions of rat brain was prepared as described by Berger et al. (Eur. J. Pharmacol. 1985, 107:289-290). Brain tissue from adult male Sprague-Dawley rats (150-200 g) was homogenized in 10 volumes of ice-cold sucrose (0.32 M) using a Teflon glass homogenizer, and centrifuged at 1000 g for 10 min. […] The final protein concentration was 100-200 μg protein/mL, as determined by the method of Lowry et al. (J. Biol. Chem. 1951, 193:265-275).
The uptake of [^3H]dopamine in a crude synaptosomal preparation was measured as described by Harris et al. (Life Sci. 1973, 13:303-312). […] The filters were rinsed three times with 4 mL of ice-cold buffer (Tris-HCl, 50 mM, pH 7.7, containing 120 mM NaCl) and the radioactivity remaining on the filters was measured by conventional liquid scintillation spectrometry. […]
Assay tubes contained 250 μL of the tissue preparation, 50 μL of [^3H]dopamine (40 nM) 200 μL of buffer or various uptake inhibitors, and 1.0 mL of Krebs-Ringer bicarbonate buffer (pH 7.4). […] Radioactivity remaining on the filters was measured by conventional liquid scintillation spectrometry.

The next data set has as its target T4, 5-HT1A receptor (Homo sapiens, UniProt P08908).
T4 sequence (P08908 1-422): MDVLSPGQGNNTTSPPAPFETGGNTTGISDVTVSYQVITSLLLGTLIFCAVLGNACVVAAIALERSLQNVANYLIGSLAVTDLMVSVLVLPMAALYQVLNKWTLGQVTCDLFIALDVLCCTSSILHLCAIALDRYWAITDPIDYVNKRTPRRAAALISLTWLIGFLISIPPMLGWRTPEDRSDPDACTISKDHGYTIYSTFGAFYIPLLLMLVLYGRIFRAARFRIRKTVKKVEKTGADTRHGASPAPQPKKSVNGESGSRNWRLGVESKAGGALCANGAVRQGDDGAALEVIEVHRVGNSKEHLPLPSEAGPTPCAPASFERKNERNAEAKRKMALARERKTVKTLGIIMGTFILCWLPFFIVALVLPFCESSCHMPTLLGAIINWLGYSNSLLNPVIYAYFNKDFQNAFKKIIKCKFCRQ
Description: 5-HT1A binding assay, [3H]8-OH-DPAT as ligand. As to conditions: 8-OH-DPAT as reference; for IC50: read-out: IC50 (nmol/L), 5-HT1A. On the procedure:
Binding properties at the 5-HT1A receptor were determined by means of the 5-HT1A binding assay as described in the literature by Mulheron et al. (J. Biol. Chem. 1994, 269:12954-12962) with [^3H]8-OH-DPAT as ligand and 8-OH-DPAT as reference.

Broadly, the Ki is the equilibrium dissociation constant of an inhibitor or competing ligand from its target. Higher therefore signals a looser hold on the target. For orientation: melting point means the temperature of the solid-liquid transition.

T1 sequence (P31652 whole entry): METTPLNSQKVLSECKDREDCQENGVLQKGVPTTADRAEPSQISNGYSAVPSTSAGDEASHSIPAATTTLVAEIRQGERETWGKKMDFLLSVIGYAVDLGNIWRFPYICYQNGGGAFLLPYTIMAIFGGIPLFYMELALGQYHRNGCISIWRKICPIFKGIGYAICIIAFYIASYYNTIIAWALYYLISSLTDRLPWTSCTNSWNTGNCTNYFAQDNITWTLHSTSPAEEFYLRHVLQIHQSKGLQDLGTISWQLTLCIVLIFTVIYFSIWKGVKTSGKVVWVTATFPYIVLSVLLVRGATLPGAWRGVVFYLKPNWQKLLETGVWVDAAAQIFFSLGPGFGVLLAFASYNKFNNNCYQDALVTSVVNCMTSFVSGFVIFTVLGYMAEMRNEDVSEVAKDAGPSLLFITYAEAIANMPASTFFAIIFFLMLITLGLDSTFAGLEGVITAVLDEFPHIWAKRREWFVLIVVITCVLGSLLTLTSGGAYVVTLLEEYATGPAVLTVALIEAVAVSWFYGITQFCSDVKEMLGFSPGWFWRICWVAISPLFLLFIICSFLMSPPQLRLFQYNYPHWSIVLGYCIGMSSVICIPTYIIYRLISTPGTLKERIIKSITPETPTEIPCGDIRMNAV
T3 sequence (P23977 whole entry): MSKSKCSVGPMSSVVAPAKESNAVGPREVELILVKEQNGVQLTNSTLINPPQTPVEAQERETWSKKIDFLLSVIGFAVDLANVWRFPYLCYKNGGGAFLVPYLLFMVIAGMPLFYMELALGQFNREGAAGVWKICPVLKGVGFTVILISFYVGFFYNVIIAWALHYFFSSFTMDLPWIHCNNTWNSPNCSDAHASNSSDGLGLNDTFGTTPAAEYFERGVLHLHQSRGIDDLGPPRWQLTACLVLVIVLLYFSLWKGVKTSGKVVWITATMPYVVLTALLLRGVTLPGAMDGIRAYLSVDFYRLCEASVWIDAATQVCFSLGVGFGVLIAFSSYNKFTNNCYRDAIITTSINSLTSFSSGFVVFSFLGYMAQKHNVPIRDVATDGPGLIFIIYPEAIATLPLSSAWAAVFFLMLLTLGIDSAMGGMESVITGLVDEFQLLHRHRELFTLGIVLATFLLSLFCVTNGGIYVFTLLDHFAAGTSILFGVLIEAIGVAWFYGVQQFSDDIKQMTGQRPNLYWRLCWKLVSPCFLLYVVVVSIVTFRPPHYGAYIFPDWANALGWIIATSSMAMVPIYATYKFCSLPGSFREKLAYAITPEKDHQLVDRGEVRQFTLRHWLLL

Regarding `N#Cc1cnc2[nH]cc(CCCCN3CCN(c4ccc5oc(C(N)=O)cc5c4)CC3)c2c1` [Example 1, 5-{4-[4-(5-Cyano-1H-pyrrolo[2,3-b]pyridine-3-yl)-butyl]-piperazin-1-yl}-benzofuran-2-carboxylic acid amide], the IC50 was 51 to 100 nmol/L on Serotonin reuptake, 101 to 150 nmol/L on Norepinephrine uptake, greater than 200 nmol/L at Dopamine uptake and 151 to 200 nmol/L on 5-HT1A receptor. Further, the Ki on 5-HT1A receptor fell in the range of 101 to 150 nM.
With `N#Cc1ccc2[nH]cc(CCCCN3CCN(c4ccc5oc(C(N)=O)cc5c4)CC3)c2n1` [Example 2, 5-{4-[4-(5-Cyano-1H-pyrrolo[3,2-b]pyridine-3-yl)-butyl]-piperazin-1-yl}-benzofuran-2-carboxylic acid amide], the IC50 on Serotonin reuptake was greater than 200 nmol/L; on Norepinephrine uptake, 151 to 200 nmol/L; at Dopamine uptake it was greater than 200 nmol/L; at 5-HT1A receptor it was 51 to 100 nmol/L. This compound also yielded a Ki on 5-HT1A receptor of 1 to 50 nM.
In the case of `N#Cc1cnc2[nH]cc(CCCCN3CCC(Oc4ccc5c(c4)OCCO5)CC3)c2c1` [Example 3, 3-{4-[4-(2,3-Dihydro-benzo[1,4]dioxin-6-yloxy)-piperidin-1-yl]-butyl}-1H-pyrrolo[2,3-b]pyridine-5-carbonitrile], the melting point was 240 to 242 °C.
